Test results published in paper PMC5832771, “Recognition motif and mechanism of ripening inhibitory peptides in plant hormone receptor ETR1” (Scientific Reports, 2018).
Residues, ends and D or L forms follow the SMILES beside them. No end group written: not given here.

T1: AtETR1^1–307 (TM–GAF) (Arabidopsis thaliana, UniProt P49333 1-307, Alexa Fluor 488 C5 maleimide (thiol-reactive) label)
T1 construct: pTEV-16b: N-terminal His10, linker SSGH, TEV site ENLYFQG; no cleavage described; source: E. coli C43 (DE3), purified (membranes solubilised in fos-choline-16, Ni-NTA HisTrap)
T1 sequence (looked up): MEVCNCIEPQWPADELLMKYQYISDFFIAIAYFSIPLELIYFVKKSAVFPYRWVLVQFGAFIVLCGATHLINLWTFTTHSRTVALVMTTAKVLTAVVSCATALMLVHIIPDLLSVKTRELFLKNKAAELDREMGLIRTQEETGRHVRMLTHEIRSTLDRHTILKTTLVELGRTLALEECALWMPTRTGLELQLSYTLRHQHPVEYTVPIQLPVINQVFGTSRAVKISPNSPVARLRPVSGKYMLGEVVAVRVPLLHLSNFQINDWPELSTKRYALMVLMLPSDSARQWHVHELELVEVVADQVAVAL

B1: extended peptide NIP-1 (peptide)
peptide: AFPKGKENLASVLKRYKRRL-NH2
notes: source: synthetic peptide, bought: GenScript (TFA salt, >98% HPLC purity)
B2: extended peptide N30P (peptide)
peptide: GRTGTAAGDVAFPKGKENLASVLKRYKRRL-NH2
notes: as for B1
B3: extended peptide N41P (peptide)
peptide: KDVEMAISSRKGRTGTAAGDVAFPKGKENLASVLKRYKRRL-NH2
notes: as for B1

Legend:
AtETR1^1–307 (TM–GAF) [1] = target: T2, AtETR1^1–307 (TM–GAF) (Arabidopsis thaliana, UniProt P49333); test: biochemical; format: binding
T2 construct: made in house; host or cells: E. coli C43 (DE3)

AtETR1^1–307 (TM–GAF) [2] = target: T1, AtETR1^1–307 (TM–GAF); test: MST; Alexa Fluor 488-labelled AtETR1 construct at 25 nM, peptide titrated; 50 mM Tris/HCl pH 8.0, 300 mM NaCl, 0.15 g/L fos-choline-16; 23-25 °C; temperature jump evaluated, one-binding-site model; details: both partners purified

| Molecule | Kd (AtETR1^1–307 (TM–GAF) [1]) [nM] | binding result (AtETR1^1–307 (TM–GAF) [2]) |
| --- | --- | --- |
| KDVEMAISSRKGRTGTAAGDVAFPKGKENLASVLKRYKRRL-NH2 [N41P] | 30 ± 10 | – |
| CC(C)C[C@H](NC(=O)[C@H](CCCNC(=N)N)NC(=O)[C@H](CCCNC(=N)N)NC(=O)[C@H](CCCCN)NC(=O)[C@H](Cc1ccc(O)cc1)NC(=O)[C@H](CCCNC(=N)N)NC(=O)[C@H](CCCCN)NC(=O)[C@H](CC(C)C)NC(=O)[C@@H](NC(=O)[C@H](CO)NC(=O)[C@H](C)NC(=O)[C@H](CC(C)C)NC(=O)[C@H](CC(N)=O)NC(=O)[C@H](CCC(=O)O)NC(=O)[C@H](CCCCN)NC(=O)CNC(=O)[C@H](CCCCN)NC(=O)[C@@H]1CCCN1C(=O)[C@H](Cc1ccccc1)NC(=O)[C@H](C)NC(=O)[C@@H](NC(=O)[C@H](CC(=O)O)NC(=O)CNC(=O)[C@H](C)NC(=O)[C@H](C)NC(=O)[C@@H](NC(=O)CNC(=O)[C@@H](NC(=O)[C@H](CCCNC(=N)N)NC(=O)CN)[C@@H](C)O)[C@@H](C)O)C(C)C)C(C)C)C(N)=O [N30P] (H-GRTGTAAGDVAFPKGKENLASVLKRYKRRL-NH2) | 57 ± 19 | – |
| CC(C)C[C@H](NC(=O)[C@H](CCCNC(=N)N)NC(=O)[C@H](CCCNC(=N)N)NC(=O)[C@H](CCCCN)NC(=O)[C@H](Cc1ccc(O)cc1)NC(=O)[C@H](CCCNC(=N)N)NC(=O)[C@H](CCCCN)NC(=O)[C@H](CC(C)C)NC(=O)[C@@H](NC(=O)[C@H](CO)NC(=O)[C@H](C)NC(=O)[C@H](CC(C)C)NC(=O)[C@H](CC(N)=O)NC(=O)[C@H](CCC(=O)O)NC(=O)[C@H](CCCCN)NC(=O)CNC(=O)[C@H](CCCCN)NC(=O)[C@@H]1CCCN1C(=O)[C@H](Cc1ccccc1)NC(=O)[C@H](C)N)C(C)C)C(N)=O [NIP-1] (H-AFPKGKENLASVLKRYKRRL-NH2) | 68 ± 15 | – |
| B1 | – | binds |
| B2 | – | binds |
| B3 | – | binds |
